Reference: PMC10913484, “Hydroxyhexylitaconic acids as potent IMP-type metallo-β-lactamase inhibitors for controlling carbapenem resistance in Enterobacterales” (Microbiology Spectrum, 2024)
≈ marks a conversion by molar mass, not a printed value. Where two headings read alike, the source gives them in different places.

Experiments:
[1] = system: K. pneumoniae NUBL-8 (IMP-1); assay: Susceptibility test, clinical isolate; assay type: cell-based; conditions: Klebsiella pneumoniae
Procedure: (§1) Susceptibility testing, based on the microdilution method, was performed according to the guidelines of the Clinical and Laboratory Standards Institute ([36]).

[2] = system: IMP-1-producing E. coli NUBL-24; assay: Time-killing assay; assay type: cell-based; conditions: 12-h incubation; for Time-kill: effect on growth, HHIA alone: 50 µg/mL alone; for Time-kill: MPM-HHIA combination: MPM 1 µg/mL + HHIA 50 µg/mL
Procedure: The initial density of IMP-1-producing E. coli NUBL-24 (MPM MIC, 8 µg/mL) was adjusted to approximately 5 × 10^6 colony-forming units (cfu)/mL. Either MPM (1 µg/mL) or 9-HHIA/10-HHIA (50 µg/mL) alone or a combination of the two was added to the bacterial solution, and then incubation was performed at 37°C. LB broth containing bacteria alone was used as a control. At 0, 2, 4, 8, and 12 h after adding the agents, an aliquot of the bacterial culture was removed, diluted, and spotted on LB agar plates to count the viable bacterial cells. The detection limit was set at 333 cfu/mL.

IMP-1 = target: T1, IMP-1 (Serratia marcescens, UniProt P52699); assay type: binding; conditions: DSF; control protein 52.5°C
T1 construct: made in house
Procedure: The DSF assay was performed using the Protein Thermal Shift Dye Kit (Thermo Fisher Scientific) and StepOnePlus Real-Time PCR Systems (Applied Biosystems) as follows: 2 µL of IMP-1 enzyme (100 µM), 1 µL of EDTA or HHIA solution (5 mM), 2.5 µL of diluted Protein Thermal Shift Dye (32×), 5 µL of Protein Thermal Shift buffer, and 9.5 µL of water were mixed in a test tube and incubated for 15 min at 4°C. Four replicates of each sample were performed. The fluorescence was monitored at 0.7°C increments from 4°C to 99°C. The relative fluorescence units were fitted with the Boltzmann equation using the TSA-CRAFT software to determine the melting point (Tm) ([47]).

E. coli DH5α pCL-SMB-1 = assay: Susceptibility test (microdilution), transformant; assay type: cell-based; conditions: for MPM MIC: E. coli DH5α pCL-SMB-1
Procedure: as §1

E. coli DH5α pBC-NDM-1 = assay: Susceptibility test (microdilution), transformant; assay type: cell-based; conditions: for MPM MIC: E. coli DH5α pBC-NDM-1; for MIC: Escherichia coli, read-out: MPM MIC
Procedure: as §1

E. coli DH5α pBC-IMP-1 = assay: Susceptibility test (microdilution), transformant; assay type: cell-based; conditions: Escherichia coli
Procedure: as §1

[3] = +HHIA 6.25 µg/mL, read-out: IPM MIC
[4] = +HHIA 6.25 μg/mL, read-out: MPM MIC
[5] = +HHIA 25 µg/mL, read-out: IPM MIC
[6] = +HHIA 25 μg/mL, read-out: MPM MIC
[7] = +HHIA 100 µg/mL, read-out: IPM MIC
[8] = +HHIA 100 μg/mL, read-out: MPM MIC
[9] = read-out: MPM MIC, +agent 100 μg/mL

T1 sequence (P52699 19-246, looked up, species assumed): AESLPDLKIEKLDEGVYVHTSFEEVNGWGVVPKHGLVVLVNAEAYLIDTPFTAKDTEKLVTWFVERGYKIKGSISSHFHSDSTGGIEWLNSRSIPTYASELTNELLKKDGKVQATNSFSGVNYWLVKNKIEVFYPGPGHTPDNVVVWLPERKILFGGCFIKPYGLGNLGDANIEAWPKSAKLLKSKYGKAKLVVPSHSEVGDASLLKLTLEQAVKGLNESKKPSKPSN

With C=C(C(=O)O)C(CCCCC(C)O)C(=O)O (centres unmarked) [9-HHIA, 9-hydroxyhexylitaconic acid] the MIC [1, 3] was 2 µg/mL (≈ 8.69 µM), the MIC [1, 4] was 16 µg/mL (≈ 69.5 µM) and the MIC [1, 5] was 4 µg/mL (≈ 17.4 µM). The MIC [1, 6] was 4 µg/mL (≈ 17.4 µM), the MIC [1, 7] was 1 µg/mL (≈ 4.34 µM) and the MIC [1, 8] was 0.5 µg/mL (≈ 2.17 µM). The “Time-kill: effect on growth, HHIA alone” value [2] was “did not affect the growth”, the “Time-kill: MPM-HHIA combination” value [2] was “did not permit the re-growth” and the “Melting temperature (Tm) of treated IMP-1” value (IMP-1) was 54.9 °C. The “MPM MIC” value (E. coli DH5α pCL-SMB-1; +agent 25 μg/mL) was 32 µg/mL, the “MPM MIC” value (E. coli DH5α pCL-SMB-1; +agent 100 μg/mL) was 32 µg/mL and the “MPM MIC” value (E. coli DH5α pBC-NDM-1; +agent 25 μg/mL) was 64 µg/mL. For the same compound, the “MPM MIC” value (E. coli DH5α pBC-NDM-1; +agent 100 μg/mL) was 64 µg/mL, the MIC (E. coli DH5α pBC-NDM-1) was 64 µg/mL (≈ 278 µM) and the MIC (E. coli DH5α pBC-IMP-1; [9]) was 0.125 µg/mL (≈ 0.543 µM).
For C=C(C(=O)O)C(CCCCCCO)C(=O)O (centres unmarked) [10-HHIA, 10-hydroxyhexylitaconic acid], the MIC [1, 3] was 2 µg/mL (≈ 8.69 µM), the MIC [1, 4] was 8 µg/mL (≈ 34.7 µM) and the MIC [1, 5] was 1 µg/mL (≈ 4.34 µM). The MIC [1, 6] was 2 µg/mL (≈ 8.69 µM), the MIC [1, 7] was 0.5 µg/mL (≈ 2.17 µM) and the MIC [1, 8] was 0.25 µg/mL (≈ 1.09 µM). The “Time-kill: effect on growth, HHIA alone” value [2] was “did not affect the growth”, the “Time-kill: MPM-HHIA combination” value [2] was “did not permit the re-growth” and the “Melting temperature (Tm) of treated IMP-1” value (IMP-1) was 55.6 °C. For the same compound, the “MPM MIC” value (E. coli DH5α pCL-SMB-1; +agent 25 μg/mL) was 32 µg/mL, the “MPM MIC” value (E. coli DH5α pCL-SMB-1; +agent 100 μg/mL) was 32 µg/mL and the MIC (E. coli DH5α pCL-SMB-1; Escherichia coli, read-out: MPM MIC) was 32 µg/mL (≈ 139 µM). The “MPM MIC” value (E. coli DH5α pBC-NDM-1; +agent 25 μg/mL) was 64 µg/mL, the “MPM MIC” value (E. coli DH5α pBC-NDM-1; +agent 100 μg/mL) was 64 µg/mL and the MIC (E. coli DH5α pBC-NDM-1) was 64 µg/mL (≈ 278 µM). It also gave an MIC (E. coli DH5α pBC-IMP-1; read-out: MPM MIC, +agent 25 μg/mL) of 0.125 µg/mL (≈ 0.543 µM) and an MIC (E. coli DH5α pBC-IMP-1; [9]) of no more than 0.0625 µg/mL.
